US7211246B2, “Compositions comprising oestrone-3-0-sulphamate and trail (TNF-related apoptosis inducing ligand)” (Sterix Limited, priority 2001, dated 2007)

Key:
caspase 8 = experiment: Western blot of caspase 8 activation in Cal51 cells; format: cell-based
Method: (§1) FIG. 3. Effect of 2-MeOE2bisMATE on caspase 8 and caspase 3 activation and PARP cleavage in Cal51 cells. Western blots showing caspase 8 and caspase 3 unprocessed and active fragments and PARP uncleaved and cleaved products following treatment of Cal51 cells with solvent, 0.05, 0.5 or 5 μM 2-MeOE2bisMATE for 48 hours.
(§2) FIG. 5. Effect of 2-MeOE2bisMATE on the timing of caspase 3 and caspase 8 activation and PARP cleavage in Cal51 cells. Western blots showing caspase 3, caspase 8 and PARP unprocessed and cleaved products at 0, 8, 16, 24 and 48 hrs following treatment of Cal51 cells with 5 μM 2-MeOE2bisMATE for 48 hrs or untreated for 48 hrs (48NT).
(§3) To determine whether caspases might play a role in cell death induced by 2-MeOE2bisMATE and other sulfamoylated oestrogen derivatives, we examined the expression of caspase 3, caspase 8 and PARP by immunoblotting (FIG. 3). […]
(§4) There are two major pathways of apoptosis; cell surface death receptors activate caspases directly via activation of caspase 8 whereas other apoptotic stimuli operate via triggering the release of cytochrome c from mitochondria which subsequently activates caspases. […] Caspase 3 activation was first detected at 16 hours and as expected was followed by PARP cleavage at 24 hours (FIG. 5). Caspase 8 activation was a relatively late event, first detected at 48 hours. […]

caspase 3 = experiment: Western blot of caspase 3 activation in Cal51 cells; format: cell-based
Method: as §1, §2
FIG. 7. Effect of combined treatment of 2-EtEMATE or 2-MeOEMATE and TRAIL on caspase 3 activation in Cal51 cells. Western blots showing caspase 3 activation following treatment of Cal51 cells for 48 hours with solvent, 250 ng/ml TRAIL and 5 μM 2-EtEMATE or 2-MeOEMATE in the presence or absence of 250 ng/ml TRAIL. PCNA levels represent corresponding loading controls. 1, control; 2, THF solvent; 3, TRAIL; 4, 2-EtEMATE; 5,2-EtEMATE+TRAIL; 6, control; 7, THF solvent; 8, TRAIL; 9, 2-MeOEMATE; 10, 2-MeOEMATE+TRAIL
To determine whether caspases might play a role in cell death induced by 2-MeOE2bisMATE and other sulfamoylated oestrogen derivatives, we examined the expression of caspase 3, caspase 8 and PARP by immunoblotting (FIG. 3). […] Therefore, cell death induced by the 2-MeOE2bisMATE in Cal51 cells is associated with caspase activation.
There are two major pathways of apoptosis; cell surface death receptors activate caspases directly via activation of caspase 8 whereas other apoptotic stimuli operate via triggering the release of cytochrome c from mitochondria which subsequently activates caspases. Both pathways ultimately result in activation of caspase 3 and PARP cleavage. Since activation of caspase 8 is an indicator for the direct involvement of death receptors, it is important to determine whether activation of caspase 8 by 2-MeOE2bisMATE precedes or follows caspase 3 activation. We therefore performed time course experiments in Cal51 cells treated with 2-MeOE2bisMATE to order the activation events. Caspase 3 activation was first detected at 16 hours and as expected was followed by PARP cleavage at 24 hours (FIG. 5). Caspase 8 activation was a relatively late event, first detected at 48 hours. Therefore activation of caspase 3 induced by 2-MeOE2bisMATE precedes activation of caspase 8.
To further explore the mechanism for co-operation between sulfamoylated oestrones and TRAIL, we analysed activation of caspase 3 (FIG. 7). […] Therefore, sulfamoylated oestrones and TRAIL cooperate to activate caspase 3.

PARP = experiment: Western blot of PARP cleavage in Cal51 cells; format: cell-based
Method: as §1, §2, §3, §4

CAL51 cells = experiment: TUNEL assay of apoptosis in Cal51 cells with or without caspase inhibitor ZVAD-fmk; format: cell-based; conditions: 5 μM 2-MeOE2bisMATE with 50 μM zVAD-fmk, 3 days
Method: FIG. 4. Effect of the caspase inhibitor ZVAD-fmk on 2-MeOE2bisMATE induced apoptosis in Cal51 cells. TUNEL assay showing % apoptosis of cells untreated or following treatment with 50 μM ZVAD-fmk, 5 μM 2-MeOE2bisMATE or 5 μM 2-MeOE2bisMATE and 50 μM zVAD-fmk for 3 days. Histograms are overlays for control cells stained in the absence of TdT enzyme (bold) or cells stained with TUNEL reaction mix (open).
To determine whether the activation of caspases was important for cell killing, we tested whether a broad range chemical caspase inhibitor interfered with apoptosis. Cells were treated with 2-MeOE2bisMATE in the presence and absence of the caspase inhibitor ZVAD-fmk and cell death was analysed using the TUNEL assay which measures the DNA cleavage associated with apoptosis. The induction of TUNEL positive cells by 2-MeOE2bisMATE was reduced by 60% in the presence of zVAD-fmk (FIG. 4). Therefore 2-MeOE2bisMATE requires activation of caspases for optimal induction of apoptosis.

DR5 protein = experiment: Western blot of DR5 protein levels in Cal51 cells; format: cell-based; conditions: 48 hours, 0.05, 0.5 and 5 μM
Method: FIG. 6. […] Western blot showing DR5 protein levels following treatment of Cal51 cells for 48 hours with 0, 0.05, 0.5 and 5 μM of 2-MeOEMATE or 2-EtEMATE. PCNA levels represent corresponding loading controls.
Protein lysates were prepared from CAL51 cells treated with various compounds and analysed for expression of DR5 by immunoblotting (FIG. 6).

[1] = in vivo; cited from earlier work
[2] = Cal51 cells, 5 μM, time course 0-48 hrs
[3] = Cal51 cells, 0.05, 0.5 or 5 μM, 48 hours

COc1cc2c(cc1OS(N)(=O)=O)CCC1C2CCC2(C)C(OS(N)(=O)=O)CCC12 (stereo not shown) [2-MeOE2bisMATE, 2-methoxyoestrone-3-O,17-bissulphamate]
time at which caspase 8 activation was first detected (caspase 8; [2]): 48 h
activation of caspase 8 (caspase 8; [3]): dose dependent activation
time at which caspase 3 activation was first detected (caspase 3; [2]): 16 h
activation of caspase 3 (caspase 3; [3]): dose dependent activation
activation of caspase 3, synergistic effect with TRAIL (caspase 3; in combination with TRAIL): increased activation of caspase 3
time of PARP cleavage (PARP; [2]): 24 h
PARP cleavage (PARP; [3]): Cleavage of PARP
reduction of induction of TUNEL positive cells in the presence of zVAD-fmk (CAL51 cells): 60%
DR5 protein levels by western blot (DR5 protein): no significant change

C[C@]12CC[C@@H]3c4ccc(OS(=O)(=O)O)cc4CC[C@H]3[C@@H]1CCC2=O [E1S, oestrone sulphate]
half-life in blood [1]: 10 to 12 h
